Source: the SangsterLogP compilation

Conditions: not given

Compound | logP
O=c1c2ccccc2oc2ccccc12 | 3.39
O=C(O)COc1ccc(N2Cc3ccccc3C2=O)cc1 | 3.58
O=C(O)Cc1csc(-c2ccc(Cl)cc2)n1 | 3.29
Cc1cccc(OCc2ccccc2)n1 | 3.43
CCOC(=O)NNc1ccccc1 | 1.22
Oc1ccc(C(F)(F)F)cc1 | 2.82
Cn1c(N)nc2cc(Cl)c(Cl)cc21 | 2.98
O=S(Cc1ccccc1)Cc1ccccc1 | 1.99
CNC(=N[N+](=O)[O-])NCCSCc1nc[nH]c1C | 0.13
Cc1ccccc1CO | 1.58
COc1ccc(S(C)(=O)=O)cc1 | 0.76
NC(=O)OCCc1cccc2c1C(=O)C(Br)=C(N1CC1)C2=O | 0.68
CC(C)C(C)C | 3.42
CNC1=CC(=O)C(NC)=CC1=O | 0.34
CCCCNC(=S)N(CCCC)CCCC | 3.68
CN(C)C1=CC(=O)C(N(C)C)=CC1=O | 1.03
CCCCCCCCCCCCCCc1cccc(N2C(N)=NC(N)=NC2(C)C)c1 | 3.64
CC(C)(C)n1ccnc1C=NO | 0.85
CC(C)c1ccc(O)cc1 | 2.9
CC(=O)N=c1[nH]c(=O)ccn1C1OC(COC(C)=O)C(OC(C)=O)C1OC(C)=O (stereo not drawn) | -0.16
CN(C)C(=S)NN | -0.3
Cc1cccc(OCC(O)CNC(C)C)c1 (stereo not drawn) | 2.02
O=C(N/N=C/c1ccco1)Nc1ccccc1 | 2.52
CNc1c(Cl)cccc1Cl | 2.91
Cc1ccc(/N=C/N(C)/C=N/c2ccc(C)cc2C)c(C)c1 | 5.5

Compound | logP
COc1ccc2[nH]c(N)nc2c1 | 0.57
CC(=O)Nc1nccs1 | 0.76
COC(=O)C(=O)OC | -0.17
Cc1cc(=O)cc(C)o1 | 0.1
c1ccc2c(c1)CCc1ccccc1-2 | 4.52
CCCn1cnc2c(NC(C)=O)ncnc21 | 0.09
c1ccc(COCc2ccccc2)cc1 | 3.31
CN(C)c1ccc2c(c1)C(=O)N(S(C)(=O)=O)C2=O | 1.65
CCN(CC)S(=O)(=O)c1ccc(OC)c(N)c1 | 1.7
COC(=O)/C=C/C(=O)OC | 0.74
Cc1ccncn1 | 0.16
CCCCCn1cnc2c(NC(C)=O)ncnc21 | 0.98
CN1CCCC1 | 0.92
O=C(NCCN1CCC(O)(c2ccc(Cl)cc2)CC1)c1ccc(F)cc1 | 2.85
CCN(CC)C(=O)COC(=O)[C@@H](C)c1ccc2cc(OC)ccc2c1 | 3.32
CSC(=S)Nc1ccc(Cl)c(Cl)c1 | 4.23
OC1CCCCCCCCCCC1 | 3.75
Cc1ccc(N(SC(F)(Cl)Cl)S(=O)(=O)N(C)C)cc1 | 3.95
CC(C)(C)c1cccc(C(C)(C)C)n1 | 4.14
CC(C)I | 2.89
CCC(C)(C)Cl | 2.52
C[C@H](C(=O)O)c1ccc(N2Cc3ccccc3C2=O)cc1 | 2.89
CN1C(=O)CCC1=O | -0.95
Nc1ccc(Cl)c([N+](=O)[O-])c1 | 2.06
O=C(CCn1cnc([N+](=O)[O-])n1)NCCO | -1.32

Compound | logP
CC(O)CNC(=O)C(F)(F)Cn1cnc([N+](=O)[O-])n1 (stereo not drawn) | -0.48
C=CC1(C)OC(=O)N(c2cc(Cl)cc(Cl)c2)C1=O (stereo not drawn) | 3.1
O=c1n[n+]([O-])ccn1[C@@H]1O[C@H](CO)[C@@H](O)[C@H]1O | -2.43
CCS(=O)(=O)c1c([N+](=O)[O-])ncn1C | -0.37
Clc1nc(-c2ccccc2)nc2ccccc12 | 4.47
COC(=O)c1cc(S(N)(=O)=O)ccc1SCCCO | 0.78
CCOC(=O)C(F)F | 0.87
N#Cc1cccc(C=O)c1 | 1.18
CN(C)O | -1.15
O=C(OCCc1ccccc1)c1ccccc1 | 4.01
COc1ccc([N+](=O)[O-])cc1N | 1.47
Cc1ccc2c(c1)nc(N)n2C | 1.47
CN(C)c1ccc(C#N)cc1 | 2.2
CC(=O)COc1ccccc1 | 1.04
CC1=C(N2CC2)C(=O)c2ccc(CCOC(N)=O)c(N3CC3)c2C1=O | 0.16
N#CCC#N | -0.5
CN(C)c1cccnc1 | 1.41
COC(=O)C1=CCCN(C)C1 | 0.35
CNC(=O)c1ccccc1C(=O)c1ccccc1 | 2.09
C[C@]12CCC(=O)C=C1CC[C@@H]1[C@@H]2CC[C@@]2(C)[C@H]1CC[C@]2(O)[C@H](O)CO | 2
CS(=O)(=O)N(c1ccccc1[N+](=O)[O-])S(C)(=O)=O | 0.81
O=C1C=C(N2CCCC2)C(=O)c2ccccc21 | 2.89
Nc1ccccc1SSc1ccccc1N | 3.05
FC(F)(F)c1ccccc1Cl | 3.53
Clc1cc(Cl)c2cc(Cl)cc(Cl)c2c1 | 6.19

Compound | logP
O/N=C/c1ccccc1 | 1.85
O=C(Nc1ccc(Cl)cc1)c1cccnc1 | 2.53
ICCCI | 3.02
CC(C)(C)C(=O)C(C)(C)C | 3
COC(=O)C(Cl)(Cl)Cl | 2.03
Fc1cccnc1 | 0.77
CC(C(=O)O)c1ccc(N2CC3CCCCC3C2=O)cc1 (stereo not drawn) | 3.07
CCOC(=O)C(=O)Nc1ccccc1 | 1.48
NS(=O)(=O)Cc1ccccc1 | 0.13
COC(=O)c1ccc(Cl)cc1 | 2.76
CC(=O)Nc1ncnc2c1ncn2C | -0.41
CCOC(=O)COC(=O)c1cc(Oc2ccc(C(F)(F)F)cc2Cl)ccc1[N+](=O)[O-] | 3.65
CCOC(=O)CCN(Cc1ccccc1)SN(C)C(=O)ON=C(C)SC | 3.43
CC(=O)CCC(C)=O | -0.27
CCCCOC(NC(=O)c1ccccc1O)C(Cl)(Cl)Cl (stereo not drawn) | 4.45
CCCCNc1ccc(C(=O)OCCOCCOCCOCCOCCOCCOCCOCCOCCOC)cc1 | 2.45
C=CCC | 2.4
COC(=O)C(C)(C)C | 1.83
CCC(C)N(C(=O)SCc1ccccc1)C(C)CC (stereo not drawn) | 4.4
CCOc1ccccc1OCC | 2.42
Cc1nn(C)c(OCC(=O)c2ccccc2)c1C(=O)c1ccc(Cl)cc1Cl | 3.69
Clc1c(Cl)c(Cl)c2ccccc2c1Cl | 5.75
c1ccc(OP2OCCO2)cc1 | 1.42

Same assay, conditions: pH 1.0

Compound | logD
O=C(O)c1cc2ccccc2o1 | 2.41
O=C(O)c1ccccc1N1C(=O)CCC1=O | 1.55
O=C(O)Cc1ccc2ccccc2c1 | 2.81

Same assay, conditions: pH 3.5

Compound | logD
CC1=C(C(=O)O)N2C(=O)C(NC(=O)C(O)c3ccccc3)C2SC1 (stereo not drawn) | 0.46

Same assay, conditions: pH 4.0

Compound | logD
O=[N+]([O-])c1cc(C(F)(F)F)cc([N+](=O)[O-])c1NN=CC(F)(F)F | 2.8
FC(F)(F)C(=NNc1ccc(Cl)c(Cl)c1)C(F)(F)F | 5.1
O=[N+]([O-])c1ccc(NN=C(C(F)(F)F)C(F)(F)F)c([N+](=O)[O-])c1 | 3.8
CC(=NNc1c([N+](=O)[O-])cc(C(F)(F)F)cc1[N+](=O)[O-])C(F)(F)F | 3

Same assay, conditions: pH 7.0

Compound | logD
COC(=O)c1ccc(NC(C)=O)cc1 | 1.64
COc1cccc2c1C(=O)c1c(O)c3c(c(O)c1C2=O)CC(O)(C(=O)CO)CC3OC1CC(O)C(O)C(C)O1 (stereo not drawn) | 1.75
CC1(CO)COC(Cn2cncn2)(c2ccc(Cl)cc2Cl)OC1 (stereo not drawn) | 2.1
Cc1cn([C@@H]2O[C@H](CO)[C@@H](O)[C@H]2O)c(=O)nc1N | -2.01
CCCCC#N | 1.12

Same assay, conditions: pH 7.4

Compound | logD
Cn1c(N)nc2c3nccnc3ccc21 | 1.01
Cc1cc(C)c2c(c1)C(c1ccccc1)=NCC(=O)N2 | 2.94
CC(=O)Nc1cccc2cccnc12 | 1.91
COC(=O)NCCn1c([N+](=O)[O-])cnc1C | 0.02
c1ccc(COc2cccc3cccnc23)cc1 | 3.51
C#CCn1ncc2cc([N+](=O)[O-])ccc21 | 0.52
Nc1ccc(Sc2ccc(N)cc2)cc1 | 2.18
O=C(Cn1ccnc1[N+](=O)[O-])NCc1ccccc1 | 0.85
CN(C)c1nc2c3cccnc3ccc2n1C | 2.28
CN(C(F)(F)F)S(=O)(=O)CCCn1ccnc1C=NO | 1.77
OC[C@H]1O[C@@H](n2cnc3c2NC=NC[C@H]3O)C[C@@H]1O | -2.09
Cc1nc(C)c([N+](=O)[O-])[nH]1 | 0.43
CCc1nc(C)c([N+](=O)[O-])[nH]1 | 0.76
N#Cc1cccc2cccnc12 | 1.39
Fc1cccc2cccnc12 | 2.19
CC(C)Cn1c(=O)n(C)c(=O)c2[nH]c(CC(O)N3CCN(C(c4ccccc4)c4ccccc4)CC3)nc21 (stereo not drawn) | 5.21
CCCCCc1ccc(N)cc1 | 3.39
CC(=O)Oc1cccc2cccnc12 | 2.03

Same assay, conditions: pH 9.0

Compound | logD
Cc1c[nH]cn1 | 0.23

Same assay, conditions: pH 9.2

Compound | logD
C=CCOC(Cn1ccnc1)c1ccc(Cl)cc1Cl (stereo not drawn) | 3.82

Same assay, conditions: pH 11.0

Compound | logD
OCCCOc1cccc(CN2CCCCC2)c1 | 2.78

Same assay, conditions: pH 11.3

Compound | logD
CC(=O)NCCCOc1cccc(CN2CCCCC2)c1 | 2.15

Same assay, conditions: pH 13.0

Compound | logD
NCCCN | -1.43
CC1(C)CCCC(C)(C)N1 | 2.15
CNCCNC | -0.62
CCCNC | 0.84
N#CCN | -1.37
Nc1ncc(Cc2cccc(Cl)c2Cl)c(N)n1 | 2.81

Conditions: not given
Remark: another data set of the same source

Compound | logP
Cc1cc2c(s1)Nc1ccc(F)cc1N=C2N1CCN(C)CC1 | 2.98
CN1C(C(=O)Nc2ccccn2)=C(O)c2sc(Cl)cc2S1(=O)=O | 2.62
FC(F)(F)C(=NOCC1OCCO1)c1ccc(Cl)cc1 | 3.9
Cc1ccc2c(c1)C(N1CCN(CCO)CC1)CC2c1ccc(F)cc1 (stereo not drawn) | 3.57
CSc1ccc2c(c1)C(N1CCN(CCO)CC1)CC2c1ccc(F)cc1 (stereo not drawn) | 3.8
CNc1nc(Cl)c(SC)c(N2CCN(C)CC2)n1 | 2.99
OCCN1CCN(CCCC2c3ccc(F)cc3Sc3ccc(C(F)(F)F)cc32)CC1 (stereo not drawn) | 4.47
N=C1C=CC(=C(c2ccc(N)cc2)c2ccc(N)cc2)C=C1 | -0.21
OCCN1CCN(C2CC(c3ccc(F)cc3)c3ccccc32)CC1 (stereo not drawn) | 2.95
OCCN1CCN(C2CC(c3ccc(F)cc3)c3ccc(F)cc32)CC1 (stereo not drawn) | 3.3
C1=Cc2ccc3c4c(ccc(c24)C1)-c1ccccc1-3 | 5.78
CCN1CCCC1CNC(=O)c1cc(NS(N)(=O)=O)ccc1OC (stereo not drawn) | 2.02
O=c1[nH]c2ccccc2n1C1CCN(CCOc2ccccc2)CC1 | 4.18
CCN1CCCC1CNC(=O)c1cc(N(C)S(C)(=O)=O)ccc1OC (stereo not drawn) | 2.29
